Source: patent US20060210620A1, “Co-precipitated amorphous losartan and dosage forms comprising the same” (priority 2003, published 2006)

Assay: Accelerated stability testing at 40° C. and 75% relative humidity, solid form evaluated by X-ray diffraction
Type: physicochemical
Details: storage time not stated (spectra taken later in time, FIG. 1)
Method: The term “stable” as used herein refers to less than about 5% conversion of the amorphous form of losartan to a crystalline form of losartan when stored at 40° C. and 75 percent relative humidity for three months.
The amorphous solids of the following examples were evaluated for the presence of crystals and/or other degradative products using X-ray diffraction (XRD) techniques, supplemented with infrared and differential scanning calorimetry. The examples are meant to further exemplify the invention and are not intended to limit the scope of the invention.

## CCCCc1nc(Cl)c(CO)n1Cc1ccc(-c2ccccc2-c2nn[nH]n2)cc1 [Example 1, losartan potassium]
  Solid form (amorphous/crystalline) by XRD after accelerated stability conditions: almost all of the solid material converted to the crystalline form
